Columns and labels:
[1] = system: Rattus norvegicus; test: Effect on hematocrit level in Sprague-Dawley rat at 50 mg/kg after 28 days (reference value: 49.4 +/- 0.4 %); format: functional
[2] = Cmax in Sprague-Dawley rat at 10 mg/kg after 0.5 to 8 hrs by HPLC analysis; format: ADME, organism-based; design: dose 10 mg/kg; settings: in vivo
[3] = system: Mus musculus; test: Hypoglycemic activity in diabetic KK-Ay mouse model assessed as decrease in glucose level at 3 mg/kg, po qd for 14 days (reference value: 648.4 +/- 77.1 mg/dl); format: functional
[4] = system: Rattus norvegicus; test: Effect on RBC count in Sprague-Dawley rat at 50 mg/kg after 28 days (reference value: 862 +/- 21.5 x 10 ' 4/micro L); format: functional
[5] = system: Rattus norvegicus; test: Effect on hematocrit level in Sprague-Dawley rat at 100 mg/kg after 28 days (reference value: 49.4 +/- 0.4 %); format: functional
[6] = system: Rattus norvegicus; test: Effect on RBC count in Sprague-Dawley rat at 100 mg/kg after 28 days (reference value: 862 +/- 21.5 x 10 ' 4/micro L); format: functional
[7] = system: Mus musculus; test: Hypoglycemic activity in diabetic KK-Ay mouse model assessed as decrease in glucose level at 10 mg/kg, po qd for 4 days relative to untreated control; format: functional; design: scale not given: the % may be the effect or the level left
[8] = system: Mus musculus; test: Hypotriglyceridemic activity in diabetic KK-Ay mouse model assessed as decrease in triglyceride level at 3 mg/kg, po qd for 14 days (reference value: 819.9 +/- 135.5 mg/dl); format: functional
[9] = system: Mus musculus; test: Ratio of rosiglitazone ED50 to compound ED50 for po dosed diabetic KK-Ay mouse model; format: functional
[10] = system: Mus musculus; test: Hypoglycemic activity in diabetic KK-Ay mouse model assessed as decrease in glucose level at 30 mg/kg, po qd for 14 days (reference value: 648.4 +/- 77.1 mg/dl); format: functional
[11] = system: Rattus norvegicus; test: Effect on hematocrit level in Sprague-Dawley rat at 25 mg/kg after 28 days (reference value: 49.4 +/- 0.4 %); format: functional
[12] = system: Mus musculus; test: Hypotriglyceridemic activity in diabetic KK-Ay mouse model assessed as decrease in triglyceride level at 10 mg/kg, po qd for 14 days (reference value: 819.9 +/- 135.5 mg/dl); format: functional
[13] = system: Mus musculus; test: Hypotriglyceridemic activity in po dosed diabetic KK-Ay mouse model assessed as decrease in triglyceride level compound administered for 14 days; format: functional; settings: for ED50: 336 h
[14] = target: T1, Peroxisome proliferator-activated receptor gamma (Homo sapiens) (UniProt P37231); test: Transactivation of human full length PPARgamma expressed in COS1 cells co-transfected with RXRalpha after 24 hrs by luciferase reporter gene assay relative to farglitazar; format: cell-based; settings: COS-1
T1 sequence (whole entry): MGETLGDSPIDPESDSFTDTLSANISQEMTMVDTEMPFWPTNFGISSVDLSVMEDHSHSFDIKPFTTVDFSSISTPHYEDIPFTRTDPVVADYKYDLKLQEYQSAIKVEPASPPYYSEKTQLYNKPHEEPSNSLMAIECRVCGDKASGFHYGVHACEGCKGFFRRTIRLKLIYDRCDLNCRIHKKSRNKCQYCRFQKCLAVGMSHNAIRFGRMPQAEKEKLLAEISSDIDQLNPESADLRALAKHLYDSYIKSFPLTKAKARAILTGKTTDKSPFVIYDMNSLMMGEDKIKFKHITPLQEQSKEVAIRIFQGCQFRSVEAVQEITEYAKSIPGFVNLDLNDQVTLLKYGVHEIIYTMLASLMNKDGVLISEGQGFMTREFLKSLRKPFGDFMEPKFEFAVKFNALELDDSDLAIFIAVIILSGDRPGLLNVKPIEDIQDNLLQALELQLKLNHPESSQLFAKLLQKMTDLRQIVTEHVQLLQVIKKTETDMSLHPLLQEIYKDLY

[15] = system: Rattus norvegicus; test: Effect on hematocrit level in Sprague-Dawley rat at 12.5 mg/kg after 28 days (reference value: 49.4 +/- 0.4 %); format: functional
[16] = target: T2, Tyrosine-protein phosphatase non-receptor type 1 (Homo sapiens, UniProt P18031); test: Inhibition of PTB1B using pNPP as substrate after 30 mins
T2 sequence (P18031 whole entry): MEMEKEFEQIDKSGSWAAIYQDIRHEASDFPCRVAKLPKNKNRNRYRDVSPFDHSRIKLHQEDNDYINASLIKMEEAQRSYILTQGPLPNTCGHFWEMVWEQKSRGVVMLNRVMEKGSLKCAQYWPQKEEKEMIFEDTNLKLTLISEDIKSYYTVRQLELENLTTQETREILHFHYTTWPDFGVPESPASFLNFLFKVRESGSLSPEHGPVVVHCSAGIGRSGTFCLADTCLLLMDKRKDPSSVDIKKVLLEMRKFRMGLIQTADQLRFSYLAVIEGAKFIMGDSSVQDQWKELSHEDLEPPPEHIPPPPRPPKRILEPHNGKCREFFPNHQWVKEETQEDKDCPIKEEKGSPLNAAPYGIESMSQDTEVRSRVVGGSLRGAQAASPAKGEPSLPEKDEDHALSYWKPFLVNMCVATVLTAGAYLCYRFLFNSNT

[17] = target: T3, Peroxisome proliferator-activated receptor gamma (Homo sapiens, UniProt P37231); test: Transactivation of human full length PPARgamma expressed in COS1 cells co-transfected with RXRalpha after 24 hrs by luciferase reporter gene assay; format: cell-based, COS-1
T3 sequence (P37231 whole entry): T1 sequence (whole entry)

[18] = system: Rattus norvegicus; test: Effect on RBC count in Sprague-Dawley rat at 25 mg/kg after 28 days (reference value: 862 +/- 21.5 x 10 ' 4/micro L); format: functional
[19] = target: T4, Peroxisome proliferator-activated receptor alpha (Homo sapiens) (UniProt Q07869); test: Transactivation of human full length PPARalpha expressed in COS1 cells co-transfected with RXRalpha after 24 hrs by luciferase reporter gene assay relative to WY14643; format: cell-based; settings: COS-1
T4 sequence (whole entry): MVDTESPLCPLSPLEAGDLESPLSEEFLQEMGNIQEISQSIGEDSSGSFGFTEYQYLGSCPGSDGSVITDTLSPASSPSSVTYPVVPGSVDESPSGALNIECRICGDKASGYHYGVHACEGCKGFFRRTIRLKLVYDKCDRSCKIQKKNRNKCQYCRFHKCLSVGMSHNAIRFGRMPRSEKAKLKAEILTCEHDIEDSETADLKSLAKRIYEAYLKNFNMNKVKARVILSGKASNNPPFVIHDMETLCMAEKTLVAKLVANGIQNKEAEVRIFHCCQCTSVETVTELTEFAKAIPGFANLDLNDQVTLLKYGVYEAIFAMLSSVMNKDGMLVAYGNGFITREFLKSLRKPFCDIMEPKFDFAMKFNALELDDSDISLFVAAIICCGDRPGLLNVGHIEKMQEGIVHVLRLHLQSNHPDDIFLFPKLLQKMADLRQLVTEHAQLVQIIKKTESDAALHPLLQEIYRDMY

[20] = system: Mus musculus; test: Hypoglycemic activity in po dosed diabetic KK-Ay mouse model assessed as decrease in glucose level compound administered for 14 days; format: functional; settings: for ED50: 336 h
[21] = system: Mus musculus; test: Hypotriglyceridemic activity in diabetic KK-Ay mouse model assessed as decrease in triglyceride level at 30 mg/kg, po qd for 14 days (reference value: 819.9 +/- 135.5 mg/dl); format: functional
[22] = system: Mus musculus; test: Hypoglycemic activity in diabetic KK-Ay mouse model assessed as decrease in glucose level at 10 mg/kg, po qd for 14 days (reference value: 648.4 +/- 77.1 mg/dl); format: functional
[23] = target: T1, Peroxisome proliferator-activated receptor gamma (Homo sapiens); test: Ratio of rosiglitazone EC50 to compound EC50 for human full length PPARgamma
[24] = system: Rattus norvegicus; test: Effect on RBC count in Sprague-Dawley rat at 12.5 mg/kg after 28 days (reference value: 862 +/- 21.5 x 10 ' 4/micro L); format: functional
[25] = system: Rattus norvegicus; test: Effect on hematocrit level in Sprague-Dawley rat at 50 mg/kg after 28 days (reference value: 47.5 +/- 0.6 %); format: functional
[26] = system: Rattus norvegicus; test: Effect on RBC count in Sprague-Dawley rat at 12.5 mg/kg after 28 days (reference value: 832 +/- 25.2 x 10 ' 4/micro L); format: functional
[27] = system: Rattus norvegicus; test: Effect on RBC count in Sprague-Dawley rat at 50 mg/kg after 28 days (reference value: 832 +/- 25.2 x 10 ' 4/micro L); format: functional
[28] = system: Rattus norvegicus; test: Effect on RBC count in Sprague-Dawley rat at 25 mg/kg after 28 days (reference value: 832 +/- 25.2 x 10 ' 4/micro L); format: functional
[29] = system: Rattus norvegicus; test: Effect on RBC count in Sprague-Dawley rat at 100 mg/kg after 28 days (reference value: 832 +/- 25.2 x 10 ' 4/micro L); format: functional
[30] = system: Rattus norvegicus; test: Effect on hematocrit level in Sprague-Dawley rat at 12.5 mg/kg after 28 days (reference value: 47.5 +/- 0.6 %); format: functional
[31] = system: Rattus norvegicus; test: Effect on hematocrit level in Sprague-Dawley rat at 100 mg/kg after 28 days (reference value: 47.5 +/- 0.6 %); format: functional
[32] = system: Rattus norvegicus; test: Effect on hematocrit level in Sprague-Dawley rat at 25 mg/kg after 28 days (reference value: 47.5 +/- 0.6 %); format: functional

Cmax [2] | IC50 [16] | Emax [19] | Compound | Activity [3] | Activity [7] | Activity [8] | Activity [10] | Activity [12] | Activity [13] | ED50 [13] | Activity [20] | ED50 [20] | Activity [21] | Activity [22] | further results
4.5 µM | 1.18 µM | < 50% | C/C=C/C=C/C(=O)N1Cc2cc(OCCc3nc(/C=C/CCC(C)C)oc3C)ccc2C[C@H]1C(=O)O.CC(C)(C)N | 385.2 mg/dL | 55% | 625.6 mg/dL | 252.5 mg/dL | 243.8 mg/dL | Dose-dependent effect | 6.2 mg/kg | Dose-dependent effect | 4.3 mg/kg | 318.4 mg/dL | 273.7 mg/dL | Activity [1]: 48.2%; Activity [4]: 835 ×10⁴ /uL; Activity [5]: 47.8%; Activity [6]: 817 ×10⁴ /uL; Ratio ED50 [9]: 5; Activity [11]: 47.1%; Emax [14]: 98%; Activity [15]: 49.7%; EC50 [17]: 0.03 µM; Activity [18]: 807 ×10⁴ /uL; Ratio EC50 [23]: 4; Activity [24]: 868 ×10⁴ /uL
34.7 µM | > 30 µM | 105% | CN(CCOc1ccc(CC2SC(=O)NC2=O)cc1)c1ccccn1 (stereo not drawn) [ROSIGLITAZONE] | 413.5 mg/dL | 48% | 593.3 mg/dL | 320.6 mg/dL | 672.3 mg/dL | Dose-dependent effect | > 30 mg/kg | Dose-dependent effect | 23 mg/kg | 504.9 mg/dL | 392.9 mg/dL | Activity [25]: 43.1%; Activity [26]: 791 ×10⁴ /uL; Activity [27]: 724 ×10⁴ /uL; Activity [28]: 727 ×10⁴ /uL; Activity [29]: 679 ×10⁴ /uL; Activity [30]: 46.3%; Activity [31]: 42.3%; Activity [32]: 43.9%

From ChEMBL document CHEMBL1933004, “Novel (S)-1,2,3,4-tetrahydroisoquinoline-3-carboxylic acids: peroxisome proliferator-activated receptor γ selective agonists with protein-tyrosine phosphatase 1B inhibition” (Bioorg Med Chem, 2012)
